tested on: YAP/TAZ-TEAD transcription; experiment: Reporter gene assay for measuring the inhibition of YAP/TAZ-TEAD transcription (TEAD-responsive element luciferase reporter, Hek293T cells); assay type: cell-based; details: Hek293T cells transfected with TEAD-responsive element luciferase reporter, 24 hours incubation
Description: Hek293T cells were cultured in DMEM supplemented with 10% fetal bovine serum, Sodium pyruvate, Sodium bicarbonate, L-glutamine. The cells were harvested and transiently transfected with TEAD-responsive element luciferase reporter. Transfected cells were plated in 384-well plate containing pre-diluted compounds. After 24 hours incubation at 37° C./5% CO2, assay plates were cooled to room temperature and levelled to an equal volume per well, prior to the addition of 25 uL luciferase substrate SteadyLite (Perkin Elmer)/well. The plate was shaken for 10 min at 600 rpm, centrifuged for 1 min at 500 rpm and measured with an Envision reader (PerkinElmer). The amount of relative light units produced by the TEAD reporter was used to calculate the percentage of inhibition.
The percent of reporter inhibition was calculated in the presence of a positive control inhibitor (100% inhibition) versus a condition with the presence of the vehicle basal activity of the reporter (0% inhibition). The ability of a test compound to inhibit this activity was determined as: Percentage inhibition=[1-((RLU determined in the presence of vehicle−RLU determined for sample with test compound present) divided by (RLU determined in the presence of vehicle−RLU determined for sample with positive control inhibitor))]*100.
The activities of example compounds tested are depicted in Table 3. The activity ranges A, B and C refer to IC50 values in the reporter gene assay as follows: “A”: IC50<1 μM; “B”: 1 μM≤IC50 10 μM and “C”: IC50>10 μM; NT=not tested.

| SMILES | IC50 [nM] |
| --- | --- |
| C=CC(=O)NCC1Cc2ncccc2N(c2ccc(C(F)(F)F)cc2)C1 (single isomer, unassigned) [Cpd. No. 10-En2, (R)- or (S)-N-((1-(4-(trifluoromethyl)phenyl)-1,2,3,4-tetrahydro-1,5-naphthyridin-3-yl)methyl)acrylamide] | < 1000 |
| [2H]C([2H])([2H])C(=O)NCC1Cc2ncccc2N(c2ccc(C(F)(F)F)cc2)C1 (single isomer, unassigned) [Cpd. No. 34-En1, (R)- or (S)-N-((1-(4-(trifluoromethyl)phenyl)-1,2,3,4-tetrahydro-1,5-naphthyridin-3-yl)methyl)acetamide-2,2,2-d3] | 1000 to 10000 |
| O=C(CC(F)(F)F)NCC1Cc2ncccc2N(c2ccc(C(F)(F)F)cc2)C1 (single isomer, unassigned) [Cpd. No. 38-En2, (R)- or (S)-3,3,3-trifluoro-N-((1-(4-(trifluoromethyl)phenyl)-1,2,3,4-tetrahydro-1,5-naphthyridin-3-yl)methyl)propanamide] | < 1000 |
| CC(=O)NCC1(C)Cc2ncccc2N(c2ccc(C(F)(F)F)cc2)C1 (single isomer, unassigned) [Cpd. No. 47-En2, (R)- or (S)-N-((3-methyl-1-(4-(trifluoromethyl)phenyl)-1,2,3,4-tetrahydro-1,5-naphthyridin-3-yl)methyl)acetamide] | > 10000 |

same assay, conditions: Homo sapiens, HEK-293T, 24 h, Hek293T cells transfected with TEAD-responsive element luciferase reporter, 24 hours incubation

| SMILES | IC50 [nM] |
| --- | --- |
| CC(=O)NCC1Cc2ncccc2N(c2ccc(C(F)(F)F)cc2)C1 (single isomer, unassigned) [Cpd. No. 12-En1, (R)- or (S)-N-((1-(4-(trifluoromethyl)phenyl)-1,2,3,4-tetrahydro-1,5-naphthyridin-3-yl)methyl)acetamide] | 1000 to 10000 |
| COC(=O)NCC1Cc2ncccc2N(c2ccc(C(F)(F)F)cc2)C1 (single isomer, unassigned) [Cpd. No. 15-En2, (R)- or (S)-methyl ((1-(4-(trifluoromethyl)phenyl)-1,2,3,4-tetrahydro-1,5-naphthyridin-3-yl)methyl)carbamate] | 1000 to 10000 |
| CCC(=O)NCC1Cc2ncccc2N(c2ccc(C(F)(F)F)cc2)C1 (single isomer, unassigned) [Cpd. No. 17-En1, (R)- or (S)-N-((1-(4-(trifluoromethyl)phenyl)-1,2,3,4-tetrahydro-1,5-naphthyridin-3-yl)methyl)propionamide] | 1000 to 10000 |
| COc1ccc2c(n1)CC(CNC(C)=O)CN2c1ccc(C(F)(F)F)cc1 (single isomer, unassigned) [Cpd. No. 22-En1, (R)- or (S)-N-((6-methoxy-1-(4-(trifluoromethyl)phenyl)-1,2,3,4-tetrahydro-1,5-naphthyridin-3-yl)methyl)acetamide] | 1000 to 10000 |
| CC(=O)NCC1Cc2nc(C)ccc2N(c2ccc(C(F)(F)F)cc2)C1 (single isomer, unassigned) [Cpd. No. 26-En1, (R)- or (S)-N-((6-methyl-1-(4-(trifluoromethyl)phenyl)-1,2,3,4-tetrahydro-1,5-naphthyridin-3-yl)methyl)acetamide] | < 1000 |
| O=C(CC(F)(F)F)NCC1Cc2ncccc2N(c2ccc(C(F)(F)F)cc2)C1 (single isomer, unassigned) [Cpd. No. 38-En1, (R)- or (S)-3,3,3-trifluoro-N-((1-(4-(trifluoromethyl)phenyl)-1,2,3,4-tetrahydro-1,5-naphthyridin-3-yl)methyl)propanamide] | 1000 to 10000 |
| CCC(=O)NCC1Cc2c(Oc3cccnc3)cccc2N(c2ccc(C(F)(F)F)cc2)C1 (stereo not drawn) [Cpd. No. 1, N-((5-(pyridin-3-yloxy)-1-(4-(trifluoromethyl)phenyl)-1,2,3,4-tetrahydroquinolin-3-yl)methyl)propionamide] | < 1000 |
| CS(=O)(=O)NCC1Cc2c(Oc3cccnc3)cccc2N(c2ccc(C(F)(F)F)cc2)C1 (stereo not drawn) [Cpd. No. 2, N-((5-(pyridin-3-yloxy)-1-(4-(trifluoromethyl)phenyl)-1,2,3,4-tetrahydroquinolin-3-yl)methyl)methanesulfonamide] | 1000 to 10000 |
| C=CC(=O)NCC1Cc2c(Oc3cccnc3)cccc2N(c2ccc(C(F)(F)F)cc2)C1 (stereo not drawn) [Cpd. No. 3, N-((5-(pyridin-3-yloxy)-1-(4-(trifluoromethyl)phenyl)-1,2,3,4-tetrahydroquinolin-3-yl)methyl)acrylamide] | < 1000 |
| CCC(=O)NCC1Cc2c(OCc3cc(=O)[nH]c(=O)[nH]3)cccc2N(c2ccc(C(F)(F)F)cc2)C1 (stereo not drawn) [Cpd. No. 5, N-((5-((2,6-dioxo-1,2,3,6-tetrahydropyrimidin-4-yl)methoxy)-1-(4-(trifluoromethyl)phenyl)-1,2,3,4-tetrahydroquinolin-3-yl)methyl)propionamide] | < 1000 |
| CS(=O)(=O)NCC1Cc2c(OCc3cc(=O)[nH]c(=O)[nH]3)cccc2N(c2ccc(C(F)(F)F)cc2)C1 (stereo not drawn) [Cpd. No. 8, N-((5-((2,6-dioxo-1,2,3,6-tetrahydropyrimidin-4-yl)methoxy)-1-(4-(trifluoromethyl)phenyl)-1,2,3,4-tetrahydroquinolin-3-yl)methyl)methanesulfonamide] | 1000 to 10000 |
| CS(=O)(=O)NCC1Cc2c(OCc3cc[nH]c(=O)c3)cccc2N(c2ccc(C(F)(F)F)cc2)C1 (stereo not drawn) [Cpd. No. 9, N-((5-((2-oxo-1,2-dihydropyridin-4-yl)methoxy)-1-(4-(trifluoromethyl)phenyl)-1,2,3,4-tetrahydroquinolin-3-yl)methyl)methanesulfonamide] | < 1000 |
| O=C(O)CC1Cc2ncccc2N(c2ccc(C(F)(F)F)cc2)C1 (stereo not drawn) [Cpd. No. 13, 2-(1-(4-(trifluoromethyl)phenyl)-1,2,3,4-tetrahydro-1,5-naphthyridin-3-yl)acetic acid] | 1000 to 10000 |
| CC(=O)NCC1Cc2c(ccc[n+]2[O-])N(c2ccc(C(F)(F)F)cc2)C1 (stereo not drawn) [Cpd. No. 16, 7-(acetamidomethyl)-5-(4-(trifluoromethyl)phenyl)-5,6,7,8-tetrahydro-1,5-naphthyridine 1-oxide] | 1000 to 10000 |
| CCC(=O)NCC1Cc2ncccc2N(c2ccc(C(F)(F)F)cc2)C1 (stereo not drawn) [Cpd. No. 17, N-((1-(4-(trifluoromethyl)phenyl)-1,2,3,4-tetrahydro-1,5-naphthyridin-3-yl)methyl)propionamide] | < 1000 |
| O=C(NCC1Cc2ncccc2N(c2ccc(C(F)(F)F)cc2)C1)C1CC1 (stereo not drawn) [Cpd. No. 18, N-((1-(4-(trifluoromethyl)phenyl)-1,2,3,4-tetrahydro-1,5-naphthyridin-3-yl)methyl)cyclopropanecarboxamide] | < 1000 |
| CNS(=O)(=O)NCC1Cc2ncccc2N(c2ccc(C(F)(F)F)cc2)C1 (stereo not drawn) [Cpd. No. 19, N-(methylsulfamoyl)-1-[1-[4-(trifluoromethyl)phenyl]-3,4-dihydro-2H-1,5-naphthyridin-3-yl]methanamine] | < 1000 |
| O=C(O)/C=C/C1Cc2ncccc2N(c2ccc(C(F)(F)F)cc2)C1 (stereo not drawn) [Cpd. No. 20, (E)-3-(1-(4-(trifluoromethyl)phenyl)-1,2,3,4-tetrahydro-1,5-naphthyridin-3-yl)acrylic acid] | < 1000 |
| C=CC(=O)NCC1Cc2nc(OC)ccc2N(c2ccc(C(F)(F)F)cc2)C1 (stereo not drawn) [Cpd. No. 21, N-((6-methoxy-1-(4-(trifluoromethyl)phenyl)-1,2,3,4-tetrahydro-1,5-naphthyridin-3-yl)methyl)acrylamide] | < 1000 |
| COc1ccc2c(n1)CC(CNC(C)=O)CN2c1ccc(C(F)(F)F)cc1 (stereo not drawn) [Cpd. No. 22, N-((6-methoxy-1-(4-(trifluoromethyl)phenyl)-1,2,3,4-tetrahydro-1,5-naphthyridin-3-yl)methyl)acetamide] | < 1000 |
| CC(=O)NCC1Cc2nc(O)ccc2N(c2ccc(C(F)(F)F)cc2)C1 (stereo not drawn) [Cpd. No. 23, N-((6-hydroxy-1-(4-(trifluoromethyl)phenyl)-1,2,3,4-tetrahydro-1,5-naphthyridin-3-yl)methyl)acetamide] | > 10000 |
| O=C(O)COC1Cc2ncccc2N(c2ccc(C(F)(F)F)cc2)C1 (stereo not drawn) [Cpd. No. 24, 2-((1-(4-(trifluoromethyl)phenyl)-1,2,3,4-tetrahydro-1,5-naphthyridin-3-yl)oxy)acetic acid] | > 10000 |
| FC(F)(F)c1ccc(N2CC(CNC3COC3)Cc3ncccc32)cc1 (stereo not drawn) [Cpd. No. 25, N-((1-(4-(trifluoromethyl)phenyl)-1,2,3,4-tetrahydro-1,5-naphthyridin-3-yl)methyl)oxetan-3-amine] | > 10000 |
| CC(=O)NCC1Cc2c(cc[nH]c2=O)N(c2ccc(C(F)(F)F)cc2)C1 (stereo not drawn) [Cpd. No. 27, N-((5-oxo-1-(4-(trifluoromethyl)phenyl)-1,2,3,4,5,6-hexahydro-1,6-naphthyridin-3-yl)methyl)acetamide] | > 10000 |
| O=C1CC[C@@H](C(=O)NCC2Cc3ncccc3N(c3ccc(C(F)(F)F)cc3)C2)N1 (stereo partly drawn) [Cpd. No. 28, (2S)-5-oxo-N-((1-(4-(trifluoromethyl)phenyl)-1,2,3,4-tetrahydro-1,5-naphthyridin-3-yl)methyl)pyrrolidine-2-carboxamide] | > 10000 |
| O=C1CC[C@H](C(=O)NCC2Cc3ncccc3N(c3ccc(C(F)(F)F)cc3)C2)N1 (stereo partly drawn) [Cpd. No. 29, (2R)-5-oxo-N-((1-(4-(trifluoromethyl)phenyl)-1,2,3,4-tetrahydro-1,5-naphthyridin-3-yl)methyl)pyrrolidine-2-carboxamide] | < 1000 |
